# Patent US12514871B2, “Pegylated menaquinol compositions and methods of treatment” (Epizon Pharma, Inc., priority 2022, dated 2026)
# Several values for one entry are separate records, joined by “and”; a condition that tells them apart may be missing. Identical values can stand only once.
# Experiments:
# [1] = Single dose oral pharmacokinetics study in male Sprague Dawley rats; type: in vivo, Rat; details: for Plasma Concentration of Menaquinone-7, Mean (comparative table): G1: Menaquinone-7 oral; for Plasma Concentration of Menaquinone-7, Mean / Plasma Concentration of Menaquinone-7, individual animals: fasted
# Method: Male Sprague Dawley rats aged 8-10 weeks and weighing around 202-223 grams are used for in vivo testing. Animals are fasted overnight with free access to water. Animals are split into 4 groups G1 to G4, each group containing 3 rats. To determine the bioavailability, the test items are separately dissolved in corn oil to obtain homogenous formulations. Animals are administered with test items by oral gavage, animals of G1 received 1088 μg, G2 received 1073 μg, G3 and G4 received 1000 μg per kg body weight dose of compound Ia.1, m=9, n=7 (G1), of compound Ia.1, m=9, n=9 (G2), menaquinone-7 (G3) and menaquinone-9 (G4) respectively. The doses of Ia.1 (n=7) (G1), of Ia.1 (n=9) were adjusted for the menaquinol content. Blood samples are collected at various time points during the next 48 hours post dose.
# Blood samples were collected and transferred to tubes containing K2EDTA and immediately placed on ice for plasma preparations. Plasma was prepared by centrifugation at 3500 g for 10 min, aliquots are frozen at −80° C. until analysis. Quantification of analyte in plasma is determined by LC-MS-MS analysis. Plasma PK parameters are calculated using WinNonlin software.
# Approximately 5 mg of Menaquinone-7 was weighed and transferred to a graduated tube. Then 10 mL of sunflower oil was added and vortex mixed thoroughly until the test item is completely dissolved. The formulation was prepared in dark room under monochromatic light. The final strength of the formulation was 500 μg/mL. The formulation was prepared fresh before administration. […]
# [2] = Clinical observations in the single dose oral pharmacokinetics study; type: in vivo, Rat; details: oral 1000 μg per kg body weight, till 48 h post dose
# [3] = Single dose oral pharmacokinetics study in male Sprague Dawley rats; type: in vivo, Rat; details: for Plasma Concentration of Menaquinone-7, Mean (comparative table): G1: Menaquinone-7 oral
# [4] = test system: caspase-3; details: at a concentration of 10 mcmol/L; cited from earlier work
# [5] = Menaquinone-7 oral 1000 μg/kg b.w., sunflower oil
# [6] = Menaquinone-7 oral 1000 μg/kg b.w., sunflower oil, N 6
# [7] = Menaquinone-7 oral 1000 μg/kg b.w., sunflower oil, time 0.00 h
# [8] = Menaquinone-7 oral 1000 μg/kg b.w., sunflower oil, time 0.50 h
# [9] = Menaquinone-7 oral 1000 μg/kg b.w., sunflower oil, time 1.00 h
# [10] = Menaquinone-7 oral 1000 μg/kg b.w., sunflower oil, time 2.00 h
# [11] = Menaquinone-7 oral 1000 μg/kg b.w., sunflower oil, time 4.00 h
# [12] = Menaquinone-7 oral 1000 μg/kg b.w., sunflower oil, time 6.00 h
# [13] = Menaquinone-7 oral 1000 μg/kg b.w., sunflower oil, time 8.00 h
# [14] = Menaquinone-7 oral 1000 μg/kg b.w., sunflower oil, time 24.00 h
# [15] = Menaquinone-7 oral 1000 μg/kg b.w., sunflower oil, time 48.00 h
compound,measurement,setting,value
CC(C)=CCC/C(C)=C/CC/C(C)=C/CC/C(C)=C/CC/C(C)=C/CC/C(C)=C/CC/C(C)=C/CC1=C(C)C(=O)c2ccccc2C1=O [Menaquinone-7],"Plasma Concentration of Menaquinone-7, Mean (comparative table)",[1]; Time 0.00 h,0.00 ng/mL
same,"Plasma Concentration of Menaquinone-7, Mean (comparative table)",[1]; Time 0.50 h,3 ng/mL
same,"Plasma Concentration of Menaquinone-7, Mean (comparative table)",[1]; Time 1.00 h,11 ng/mL
same,"Plasma Concentration of Menaquinone-7, Mean (comparative table)",[1]; Time 2.00 h,15 ng/mL
same,"Plasma Concentration of Menaquinone-7, Mean (comparative table)",[1]; Time 4.00 h,14 ng/mL
same,"Plasma Concentration of Menaquinone-7, Mean (comparative table)",[1]; Time 6.00 h,10 ng/mL
same,"Plasma Concentration of Menaquinone-7, Mean (comparative table)",[1]; Time 8.00 h,6 ng/mL
same,"Plasma Concentration of Menaquinone-7, Mean (comparative table)",[1]; Time 48.00 h,2 ng/mL
same,"AUClast of Menaquinone-7 in plasma, individual animals",[1]; [5],352.16 ng·h/mL and 320.74 ng·h/mL and 166.19 ng·h/mL and 339.5 ng·h/mL and 211.72 ng·h/mL and 286.28 ng·h/mL
same,"Cmax of Menaquinone-7 in plasma, individual animals",[1]; [5],19.84 ng/mL and 13.25 ng/mL and 24.87 ng/mL and 23.02 ng/mL and 23.47 ng/mL and 14.4 ng/mL
same,"Half life of Menaquinone-7 in plasma, individual animals",[1]; [5],29.15 h and 30.91 h and 9.47 h and 21.96 h and 12.17 h and 35.05 h
same,"MRTlast of Menaquinone-7 in plasma, individual animals",[1]; [5],19.94 h and 20.91 h and 8.55 h and 14.68 h and 9.02 h and 20.28 h
same,"AUClast of Menaquinone-7 in plasma, Mean",[1]; [6],279.428 ng·h/mL and 279.43 ± 74.91 ng·h/mL
same,"Half life of Menaquinone-7 in plasma, Mean",[1]; [6],23.118 h and 23.12 ± 10.46 h
same,"MRTlast of Menaquinone-7 in plasma, Mean",[1]; [6],15.562 h and 15.56 ± 5.71 h
same,"Tmax of Menaquinone-7 in plasma, Mean",[1]; [6],5.000 h and 5.00 ± 2.10 h
same,"Plasma Concentration of Menaquinone-7, Mean",[1]; [7],0.00 ng/mL
same,"Plasma Concentration of Menaquinone-7, individual animals",[1]; [7],0.00 ng/mL
same,"Plasma Concentration of Menaquinone-7, Mean",[1]; [8],0.00 ng/mL
same,"Plasma Concentration of Menaquinone-7, individual animals",[1]; [8],0.00 ng/mL
same,"Plasma Concentration of Menaquinone-7, Mean",[1]; [9],3.23 ng/mL
same,"Plasma Concentration of Menaquinone-7, individual animals",[1]; [9],0.00 ng/mL (2×) and 3.56 ng/mL and 5.64 ng/mL and 2.91 ng/mL and 7.26 ng/mL
same,"Plasma Concentration of Menaquinone-7, Mean",[1]; [10],11.83 ng/mL
same,"Plasma Concentration of Menaquinone-7, individual animals",[1]; [10],3.21 ng/mL and 3.69 ng/mL and 9.07 ng/mL and 22.74 ng/mL and 17.91 ng/mL and 14.40 ng/mL
same,"Plasma Concentration of Menaquinone-7, Mean",[1]; [11],15.64 ng/mL
same,"Plasma Concentration of Menaquinone-7, individual animals",[1]; [11],11.45 ng/mL and 7.00 ng/mL and 24.87 ng/mL and 154.39* ng/mL and 23.47 ng/mL and 11.40 ng/mL
same,"Plasma Concentration of Menaquinone-7, Mean",[1]; [12],14.62 ng/mL
same,"Plasma Concentration of Menaquinone-7, individual animals",[1]; [12],19.84 ng/mL and 5.53 ng/mL and 13.11 ng/mL and 23.02 ng/mL and 15.09 ng/mL and 11.15 ng/mL
same,"Plasma Concentration of Menaquinone-7, Mean",[1]; [13],10.35 ng/mL
same,"Plasma Concentration of Menaquinone-7, individual animals",[1]; [13],11.92 ng/mL and 13.25 ng/mL and 8.18 ng/mL and 8.40 ng/mL and 10.89 ng/mL and 9.43 ng/mL
same,"Plasma Concentration of Menaquinone-7, individual animals","[1]; Menaquinone-7 oral 1000 μg/kg b.w., sunflower oil, time 12.00 h",7.05 ng/mL and 5.90 ng/mL and 4.26 ng/mL and 10.00 ng/mL and 5.48 ng/mL and 4.87 ng/mL
same,"Plasma Concentration of Menaquinone-7, Mean",[1]; [14],5.70 ng/mL
same,"Plasma Concentration of Menaquinone-7, individual animals",[1]; [14],8.16 ng/mL and 9.12 ng/mL and 3.00 ng/mL and 3.96 ng/mL and 4.84 ng/mL and 5.12 ng/mL
same,"Plasma Concentration of Menaquinone-7, Mean",[1]; [15],2.36 ng/mL
same,"Plasma Concentration of Menaquinone-7, individual animals",[1]; [15],3.81 ng/mL and 3.03 ng/mL and 0.00 ng/mL (2×) and 2.74 ng/mL and 4.56 ng/mL
same,plasma exposure of Menaquinone-7,"[1]; after Menaquinone-7 administration, 1000 μg/kg body weight oral, in ng·h/mL",279.43±74.91
same,Clinical Observations,[2],Rats showed no adverse clinical signs of toxicity
same,"Plasma Concentration of Menaquinone-7, Mean (comparative table)",[3]; Time 0.25 h,0.00 ng/mL
same,"Plasma Concentration of Menaquinone-7, Mean (comparative table)",[3]; Time 24.00 h,5 ng/mL
same,"Tmax of Menaquinone-7 in plasma, individual animals",[3]; [5],6 h and 8 h and 4 h and 2 h
same,"Cmax of Menaquinone-7 in plasma, Mean",[3]; [6],19 ng/mL and 19.808 ng/mL and 19.81 ± 4.93 ng/mL
vitamin K2 [VK2],decrease of the activity of caspase-3,[4],2.5 fold
